The values below come from patent US20130274233A1, “MODULATORS OF HEDGEHOG SIGNALING PATHWAY” (priority 2012, published 2013).

One data set has as its system Smo. The data set is described as follows: Bodipy-cyclopamine competition assay in Cos 7 cells expressing Smo. Particulars: cells over-expressing Smo, 5 nM Bodipy-cyclopamine. It counts as binding. The procedure: Cos 7 cells were transfected with a plasmid co-expressing Smo and a nuclear localized form of tagRFPT (pCIT-Smo). An empty parental construct (pCIT), and a construct that co-expresses SmoM2, were used as controls to assess specificity and background noise. Three days after transfection, cells were incubated with 5 nM Bodipy-cyclopamine, with or without other compounds for 1 hour at 37 °C. Cells were washed, fixed and stained with Hoechst. Images were collected by an Opera High Content Screen System. Bodipy fluorescence was quantified specifically for transfected cells (determined by red tagRFPT+ nucleus) using a program developed by the authors with Acapella 2.0 software. All of the images were scanned with identical microscopic settings and analyzed with the same input parameters.
Cos 7 cells were transfected with a plasmid that co-expresses Smo and a nuclear localized tagRFPT marker (pCIT-Smo). The empty parental construct (pCIT) and a construct that co-express SmoM2 were used as controls to assess specificity and background signal. Three days after transfection, cells were incubated with 5 nM Bodipy-cyclopamine, with or without additional compounds, for 1 hour at 37° C. Cells were then fixed and stained with Hoechst. Images were collected with the Opera High Content Screen System. Fluorescence values were assessed in transfected cells (red nuclei) with a program developed by the authors using Acapella 2.0 software. All of images were scanned with identical microscopic setting and analyzed with the same input parameters.

Data set [1] has as its system Hh pathway activity. Kind of data set: Priming and withdrawal of compound followed by Shh stimulation, Gli-luciferase reporter (hypersensitivity). It counts as cell-based. As to conditions: priming 24 hours, washout, then Shh (or SAG) stimulation. The procedure: (§1) Hh activity assays were performed using ShhLightll cells, Smo/Lightll cells, SmoM2/Lightll cells, and suFU−/− mouse embryonic fibroblasts. In the suFU−/− cells, Hh activity was measured after co-transfection with Gli driven firefly luciferase and TK-renilla luciferase reporters^41. Wnt activity was measured in 293 cells co-transfected with Top-flash and TK-renilla luciferase reporters^42. Cells were cultured and treated in 96 well assay plates (Corning) and incubated with Duo-Glo luciferase substrates (Promega) to measure firefly and renilla luciferase activity sequentially using a Top Count NX Microplate Scintillation and Luminescence Counter (Perkin Elmer). The renilla luciferase signal was used to normalize the firefly reporter activity.
Following the removal of drug containing medium, and extensive washing, cells were stimulated with either Hh ligand, or the direct-binding Smo agonist SAG^17,18.
(§2) ShhLightII cells and SmoM2/LightII cells were cultured and treated in 96 well assay plates (Corning) and incubated with Duo-Glo luciferase substrates (Promega) to sequentially measure firefly and renilla luciferase activity. Smo, or GFP, expression plasmids were co-transfected into 3T3 cells together with a Gli-responsive firefly reporter and a TK-renilla luciferase reporter contruct to monitor effects of Smo overexpression. Co-transfection of the two reporter constructs was conducted in assays measuring Hh pathway activity in suFU−/− cells. Wnt activity was measured following co-transfection of a Top-flash and renilla luciferase reporter. In both Hh and Wnt activity assays, renilla luciferase reporter activity, or mass of protein, was used to normalize expression values. Luciferase signal was read by TopCount NX Microplate Scintillation and Luminescence Counter (Perkin Elmer). Quantitative PCR probes for Ptch1, Gli1, and β-actin were purchased from Applied Biosystems. Reactions and measurements were performed using on an Applied Biosystems 7900HT at Harvard FAS Center of System Biology. β-actin was used to normalize Ptch1 and Gil1 values.
Background: Reporter assays use an easily measured gene product as a stand-in for the process of interest.

The test system of data set [2] is Hh pathway activity. Kind of data set: Gli-luciferase reporter assay, Shh-induced Hh pathway activity (ShhLightII cells). It counts as cell-based. As to conditions: Gli-luciferase induction and Smo ciliary localization; 10 μM FA.
Excerpt: (§3) NIH/3T3 cells were maintained in DMEM containing 10% (v/v) calf serum, penicillin, streptomycin, and L-glutamine. HEK293, L, cos 7, and suFU−/− mouse embryonic fibroblast cells were maintained in DMEM containing 10% (v/v) fetal bovine serum, penicillin, streptomycin, and L-glutamine. Smo::EGFP, SmoM2::GFP, and Ivs::tagRFPT were cloned into pBabe to generate retroviral particles for infection. Smo::EGFP/Ivs::tagRFPT and SmoM2::GFP/Ivs::tagRFPT stable cell lines were generated through viral infection of NIH/3T3^12. A ShhLightII Gli reporter cell line was obtained from the American Type Culture Collection (ATCC) and used in luciferase reporter assays to measure Hh pathway activity. The cell line contains a stably integrated Gli-responsive Firefly luciferase reporter and a constitutive Renilla luciferase expression construct^33. Subclones expressing Smo or SmoM2 in ShhLightII cells were used for chemical epistasis analyses.
as §1, §2

The target of data set [3] is T1, Smo::EGFP (Homo sapiens, UniProt Q99835).
T1 construct: expressed in transfected cells
T1 sequence (Q99835 28-787): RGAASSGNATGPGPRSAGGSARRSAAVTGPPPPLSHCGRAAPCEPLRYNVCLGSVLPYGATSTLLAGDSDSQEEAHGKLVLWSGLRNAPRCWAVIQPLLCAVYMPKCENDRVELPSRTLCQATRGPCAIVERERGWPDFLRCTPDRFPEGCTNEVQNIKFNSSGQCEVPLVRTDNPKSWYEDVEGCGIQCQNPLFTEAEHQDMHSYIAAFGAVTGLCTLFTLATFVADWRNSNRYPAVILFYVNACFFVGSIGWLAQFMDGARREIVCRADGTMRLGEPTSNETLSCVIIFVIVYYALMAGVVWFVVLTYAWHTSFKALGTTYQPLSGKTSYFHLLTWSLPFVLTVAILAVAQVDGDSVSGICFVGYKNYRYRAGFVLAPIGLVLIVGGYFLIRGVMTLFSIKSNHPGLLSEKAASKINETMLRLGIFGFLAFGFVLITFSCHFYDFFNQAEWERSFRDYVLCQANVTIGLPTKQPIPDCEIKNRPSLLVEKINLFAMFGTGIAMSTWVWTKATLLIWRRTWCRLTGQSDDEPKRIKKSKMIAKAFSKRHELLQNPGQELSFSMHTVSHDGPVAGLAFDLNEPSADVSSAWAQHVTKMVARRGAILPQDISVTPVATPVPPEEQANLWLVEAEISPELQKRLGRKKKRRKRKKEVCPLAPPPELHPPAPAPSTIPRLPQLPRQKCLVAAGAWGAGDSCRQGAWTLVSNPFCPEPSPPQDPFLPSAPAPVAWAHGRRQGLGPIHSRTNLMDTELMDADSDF
The data set is described as follows: High content screen for compound-induced Smo accumulation at the primary cilium (no Hh ligand). It counts as cell-based. The procedure: Cells were cultured and treated in 384-well imaging plate precoated with poly-D-Lysine (Greiner Bio-one), fixed with 4% paraformaldehyde (Electron Microscopy Sciences), and stained with Hoechst (Invitrogen). Images were collected using Opera High Content Screening System (Perkin Elmer).

The conditions of data set [4]: human cancer patients, after a single high dose; cited from earlier work.
Another data set concerns the target T2, SmoM2::GFP (Homo sapiens, UniProt Q99835, W535L).
T2 construct: expressed in transfected cells
Kind of data set: Ciliary localization of SmoM2::GFP (3T3/SmoM2::GFP Overexpression/Ivs::tagRFPT). The class given is cell-based. Particulars: SmoM2::EGFP overexpressing cells.
Excerpt: as §3
(§4) Cells were cultured and treated in 384-well imaging plate precoated with poly-D-Lysine (Greiner Bio-one), fixed with 4% paraformaldehyde (Electron Microscopy Sciences), and stained with Hoechst (Invitrogen). Images were collected using Opera High Content Screening System (Perkin Elmer). Activityl)ase (IDBS Inc, Emeryvill, Calif.) and Pipeline Pilot (Accelrys, Inc. San Diego, Calif.) were used for high content screening data management and analysis. Acapella 2.0 software (Evotec Technologies/PerkinElmer) was used to perform multi-parametrical high content image quantification. All the images for comparison were scanned with identical microscopic settings and analyzed with the same input parameters.
(§5) Acapella 2.0 software (Evotec Technologies/PerkinElmer) was used to perform multi-parametric high content image quantification. Our image analysis script used Ivs::tagREPT to first determine the location of the PC and then Smo::EGFP to quantify the level of Smo present in the cilium.

Data set [5] has as its target T1, Smo::EGFP. The data set is described as follows: Cyc-induced Smo ciliary accumulation (Smo::EGFP/Ivs::tagRFPT cells). Particulars: 5 μM Cyc. The class given is cell-based. The method, then:
as §4, §5

A further data set relates to SmoM2. The data set is described as follows: Gli-luciferase reporter induced by SmoM2::GFP overexpression (SmoM2/LightII cells). The class given is cell-based. Particulars: SmoM2 versus wild-type Smo.
Excerpt: as §3, §1, §2

In data set [6] the target is T1, Smo::EGFP. Kind of data set: High content assay of Shh-induced Smo::EGFP accumulation in the primary cilium (Smo::EGFP/Ivs::tagRFPT NIH/3T3 cells). As to conditions: in the presence of Shh. The class given is cell-based.
Excerpt: as §3, §4, §5
The inventors used the spot-finding algorithm in the RFP channel to find Ivs-rich spots. Each non-overlapping spot was based on a maximum 8 pixel-radius (when using a 40× objective) around a central intensity peak of 5 pixels. A distance of at least 10 pixels was required between adjacent spot centers. Spot peaks had to exceed thresholds of relative intensity compared to the remaining body of the spot as well as to the entire image. The average, maximum and total RFP intensity of each spot were measured. The spots with sufficiently high absolute maxima to pass the selected threshold were classified as positive spots. To form candidate cilia, the inventors selected the brightest 15% of the pixels in each positive spot and merged those pixels into objects so that the brightest parts of adjacent spots could form single, larger cilia-shaped objects. To qualify the candidate cilia as true Ivs-positive cilia, the width of the objects created from merging the brightest pixels in each spot had to be at least 2 pixels and the length to half-width ratio had to exceed 3. (i.e. a 3-pixel long by 2-pixel wide cilium was the minimum accepted cilium size and the length had to be at least 1.5 fold of the width). The mean GFP intensity within these Ivs-positive cilia was used to estimate the ciliary level of Smo protein. The inventors subtracted the background of the mean GFP intensity in the 3-pixel wide area around each candidate cilium to avoid some false positives. Those Ivs-positive cilia that exceed the final mean GFP intensity threshold set for each experiment were deemed Smo-positive cilia.
Hoechst staining was used to determine the total number of nuclei per well.
Measurements of the geometry of the cilia as well as the total fluorescent intensities of each cilium in the Smo- and Ivs-channels were used to determine if any of the compounds were having unusual effects on cilia size, intensity or frequency of observation or combinations of all three characteristics.

Data set [7] has as its target T1, Smo::EGFP. The data set is described as follows: FA promoted accumulation of Smo in the PC, inhibition by Smo antagonists. It counts as cell-based. Particulars: FA-induced. The method, then:
Cells were cultured and treated in 384-well imaging plate precoated with poly-D-Lysine (Greiner Bio-one), fixed with 4% paraformaldehyde (Electron Microscopy Sciences), and stained with Hoechst (Invitrogen). Images were collected using Opera High Content Screening System (Perkin Elmer). ActivityBase (IDBS), Pipeline Pilot (Accelrys), Excel (Microsoft), and Prism (GraphPad) were used for high content screening data management and analysis. Acapella 2.0 software (Evotec Technologies/PerkinElmer) was used to perform multi-parametric image quantification. All the comparative images were scanned with identical microscopic setting and analyzed with the same input parameters.

Data set [8] relates to Hh pathway activation induced by loss of suFU. The data set is described as follows: Gli-luciferase assay in suFU−/− mouse embryonic fibroblasts. The class given is cell-based. Particulars: suFU−/− cells. The procedure:
as §1
ShhLightII cells and SmoM2/LightII cells were cultured and treated in 96 well assay plates (Corning) and incubated with Duo-Glo luciferase substrates (Promega) to sequentially measure firefly and renilla luciferase activity. […] Wnt activity was measured following co-transfection of a Top-flash and renilla luciferase reporter. […] Luciferase signal was read by TopCount NX Microplate Scintillation and Luminescence Counter (Perkin Elmer). Quantitative PCR probes for Ptch1, Gli1, and β-actin were purchased from Applied Biosystems. […]

Data set [9] deals with Hh pathway activity. The data set is described as follows: Gli-luciferase reporter assay, Hh pathway activation by compound alone (NIH/3T3 cells). The class given is cell-based. The procedure: as §2

SMILES strings stand for the structures.

T2 sequence (Q99835 28-787 W535L): as the sequence (Q99835 28-787) above, with W508L counted along it

On to `CC1=C2C[C@H]3[C@@H](CC=C4C[C@@H](O)CC[C@@]43C)[C@@H]2CC[C@]12O[C@@H]1C[C@H](C)CN[C@H]1[C@H]2C` [Cyc, Cyclopamine], for which, in the data set with Smo, the “competition of Bodipy-Cyc binding to Smo” value is listed as “effective competitor”. Also, the “hypersensitivity to Hh pathway stimulation after priming with and removal of compound, Gli-luciferase” value with Hh pathway activity [1] is on record as “elevated signaling response”. In the data set on Hh pathway activity [2], the “Hh pathway inhibition by the antagonist in the presence of FA” value (shortened to “Hh pathway inhibition by the antagonist”) is on record as “dramatically reduced”. Besides, the “induction of Smo accumulation in the PC by compound alone” value at Smo::EGFP [3] is recorded as “induces its accumulation in the PC”.

Turning to `C[C@@H]1C[C@H]2[C@@H]3CCC4=CC(=O)C=C[C@]4(C)[C@@]3(F)[C@@H](O)C[C@]2(C)[C@@]1(O)C(=O)CO` [Dexamethasone], the peak plasma concentration in [4] is greater than 10 µM.

Turning to `CS(=O)(=O)c1ccc(C(=O)Nc2ccc(Cl)c(-c3ccccn3)c2)c(Cl)c1` [GDC0449], the “effect on SmoM2 ciliary localization” value on SmoM2::GFP is “did not alter SmoM2 ciliary accumulation”. The “effect on Cyc induced Smo cilial accumulation” value on Smo::EGFP [5] is “effectively compete with Cyc”. In the data set on Hh pathway activity [1], the “hypersensitivity to Hh pathway stimulation after priming with and removal of compound, Gli-luciferase” value is given as “no enhancing activity”. The “IC50's for SmoM2 relative to IC50's for wildtype Smo” value in the data set on SmoM2 was “at least an order of magnitude higher”. Also, the “Hh pathway inhibition by the antagonist” value in the data set with Hh pathway activity [2] is on record as “dramatically reduced”. At Smo::EGFP [6], the “inhibition of Shh-induced Smo::EGFP accumulation in the PC” value was “specifically inhibited Smo::EGFP accumulation in the PC”. Further, the “effect on FA promoted accumulation of Smo in the PC” value on Smo::EGFP [7] was “inhibit”. Also, the “effect on Hh pathway activation induced by loss of suFU” value in data set [8] was “does not alter”.

In the case of `CNC1CCC(N(Cc2cccc(-c3ccncc3)c2)C(=O)c2sc3ccccc3c2Cl)CC1` (centres unmarked) [SAG], the “induction of Smo accumulation in the PC by compound alone” value at Smo::EGFP [3] is “induces its accumulation in the PC”. Also, the “transcriptional response in Gli-luciferase reporter assay” value in the data set on Hh pathway activity [9] (1 μM SAG) is 25 fold.

Turning to `Cc1nn(-c2ccccc2)c(C)c1/C=N/N1CCN(Cc2ccccc2)CC1` [SANT-1], the “effect on SmoM2 ciliary localization” value at SmoM2::GFP was “did not alter SmoM2 ciliary accumulation”. Further, in the data set on Smo, the “competition of Bodipy-Cyc binding to Smo” value is given as “effective competitor”. The “effect on Cyc induced Smo cilial accumulation” value at Smo::EGFP [5] was “effectively compete with Cyc”. Moreover, the “IC50's for SmoM2 relative to IC50's for wildtype Smo” value in the data set with SmoM2 was “at least an order of magnitude higher”. Also, the “Hh pathway inhibition by the antagonist” value with Hh pathway activity [2] is given as “dramatically reduced”. Moreover, the “inhibition of Shh-induced Smo::EGFP accumulation in the PC” value at Smo::EGFP [6] is “specifically inhibited Smo::EGFP accumulation in the PC”. For the same compound, on Smo::EGFP [7], the “effect on FA promoted accumulation of Smo in the PC” value was “inhibit”. Further, the “effect on FA induced activation of the Hh pathway” value in the data set on Hh pathway activity [9] (FA at high concentrations) is recorded as “blocked”.
